Data published in patent publication US20010034322A1, “Taxol-like protein (TALP) and process for preparing the same” (priority 1996, published 2001).

What was measured:
Type in all cases: biochemical
tubulin [1] = test: effect of Ca2+ on microtubules assembled by GTP, taxol or TALP; settings: 4 mM CaCl2
Protocol: To investigate effect of Ca^2+ on tubulin polymerization, tubulin was added to 0.1M MES buffer(pH 6.8) free of EGTA, and GTP, taxol or TALP was added, and polymerization of microtubules were carried out at 37° C. for 15 minutes. Then, 4 mM CaCl2 was added to the reaction mixture, and depolymerization of microtubules assembled was measured, with the addition of GTP, taxol or TALP(see: FIG. 5).

[2] = system: tubulin isolated from bovine brain; test: coprecipitation of tubulin and TALP (centrifugation, SDS-PAGE of supernatants and pellets); settings: tubulin 0.4 mg/ml, 37° C., 30 minutes
Protocol: To investigate whether TALP promotes microtubule assembly in the same manner as taxol, tubulin isolated from bovine brain was added to 0.1M MES buffer(pH 6.8) to a concentration of 0.4 mg/ml. Then, 2 mM GTP, 10 μM taxol or 4 μM TALP was added to the reaction mixture, and polymerization of microtubules were carried out at 37° C. for 30 minutes. The reaction mixtures were centrifuged for 20 minutes, and the supernatants and the pellets thus obtained were analyzed by 12% SDS-PAGE(see: FIG. 7(A)).
Also, tubulin polymerization was investigated with the variation of TALP concentration. […] In FIGS. 7(A) and 7(B), S and P designate supernatant and pellet, respectively.

tubulin [3] = test: electron microscopic analysis of microtubules; settings: tubulin 1 mg/ml, 37° C., 30 minutes
Protocol: When tubulin polymerization was monitored by measuring the absorbance as in Example 1, increase in the absorbance may occur not only by microtubule assembly but also by the aggregation of tubulins. Thus, in order to confirm that the turbidity change is caused by microtubule assembly, the morphology of the polymers was examined with electron microscopy. Tubulin was added to 0.1M MES buffer to a concentration of 1 mg/ml, and GTP, taxol or TALP was added to a final reaction volume of 250 μl. The reaction mixture was incubated at 37° C. for 30 minutes, and the absorbance change at 350 nm was monitored. At this time, the reaction solutions showing increase in the absorbance were fixed and applied to a carbon-coated grids, and dried. Grids were then stained with 1% uranyl acetate for 5 minutes, washed with distilled water, and dried. And then, they were examined with electron microscope(Hitachi H-600, Japan) at an accelerated voltage of 75 kv.

tubulin [4] = test: effect of cold temperature (4° C.) on microtubules assembled by GTP, taxol or TALP; settings: chilled to 4° C.
Protocol: To investigate effect of cold temperature on tubulin polymerization, tubulin was added to 0.1M MES buffer(pH 6.8). Then GTP, taxol or TALP was added to the reaction mixture, and polymerization of microtubules were carried out at 37° C. for 15 minutes. Then, the reaction solution was chilled to a temperature of 4° C., and depolymerization of microtubules assembled was measured, with the addition of GTP, taxol or TALP(see: FIG. 6).

tubulin [5] = test: tubulin polymerization monitored by turbidity (absorbance at 350 nm); settings: 20 μM taxol; control 2 mM GTP
Protocol: All of the purification steps were carried out under 4° C., and TALP activity was determined by the conventional tubulin polymerization which was monitored by turbidity(see: Gaskin, F. et al., 1974, J. Mol. Biol., 89:737-758): Tubulin prepared according to the method of Hamel et al. or Asnes et al.(see: Hamel E. et al., 1981, Arch. Biochem. Biophys., 209:29-40; Asnes, C. F. and Wilson, L., 1979, Anal. Biochem., 98:64-73) was added to 0.1M MES(2-[N-morpholino]ethane sulfonic acid) buffer(0.1M MES containing 1 mM EGTA and 1 mM MgCl2, pH 6.8) to a final concentration of 1 mg/ml, and TALP containing solution was added to a final reaction volume of 250 μl. The reaction mixture was incubated at 37° C. for 30 minutes, and the change in absorbance at 350 nm was monitored with a Gilford Model 2600 spectrophotometer(Gilford, USA).
Effects of GTP, taxol and TALP on tubulin polymerization were examined in the same manner as described in Example 1.
When 0.5 μM of TALP was added to the reaction mixture, tubulin polymerization occurred twice or more as high as one without TALP(see: FIG. 4).

Compound	microtubules depolymerized by Ca2+ (tubulin [1]; assembled by 2 mM GTP)	tubulins polymerized ([2]; 2 mM GTP)	morphology of the polymers by electron microscopy (tubulin [3])	microtubules depolymerized at 4° C. (tubulin [4]; assembled by 2 mM GTP)	tubulin polymerization, times as high as the control (tubulin [5]) [times]	microtubules depolymerized by Ca2+ (tubulin [1]; assembled by 10 μM taxol) [%]	tubulins polymerized ([2]; 10 μM taxol)	microtubules depolymerized at 4° C. (tubulin [4]; assembled by 10 μM taxol) [%]
Nc1nc2c(ncn2[C@@H]2O[C@H](COP(=O)(O)OP(=O)(O)OP(=O)(O)O)[C@@H](O)[C@H]2O)c(=O)[nH]1 [GTP]	most	most of tubulins were not polymerized	typical microtubules were assembled	most	–	–	–	–
CC(=O)O[C@H]1C(=O)[C@@]2(C)[C@H]([C@H](OC(=O)c3ccccc3)[C@]3(O)C[C@H](OC(=O)[C@H](O)[C@@H](NC(=O)c4ccccc4)c4ccccc4)C(C)=C1C3(C)C)[C@]1(OC(C)=O)CO[C@@H]1C[C@@H]2O [taxol]	–	–	typical microtubules were assembled	–	2.5	30	about 20%	25
